Reference: ChEMBL document CHEMBL1125617, “N6-substituted adenosine receptor agonists: potential antihypertensive agents” (J Med Chem, 1991)

Tests used:
Rattus norvegicus [1] = assay: Antihypertensive activity measured as change in heart rate was measured for a 10-h after 10 mg/kg oral dose; type: functional
Rattus norvegicus [2] = assay: Antihypertensive activity measured as change in blood pressure for a 10-h after 10 mg/kg oral dose in rat; type: functional
Adenosine A2 receptor = Adenosine A2 receptor (Rattus norvegicus, UniProt P29276+P30543); assay: Binding affinity towards adenosine A2 receptor; type: protein assay
Adenosine receptor A1 = molecular target: T1, Adenosine receptor A1 (Rattus norvegicus, UniProt P25099); assay: Binding affinity towards adenosine A1 receptor
T1 sequence (P25099 whole entry): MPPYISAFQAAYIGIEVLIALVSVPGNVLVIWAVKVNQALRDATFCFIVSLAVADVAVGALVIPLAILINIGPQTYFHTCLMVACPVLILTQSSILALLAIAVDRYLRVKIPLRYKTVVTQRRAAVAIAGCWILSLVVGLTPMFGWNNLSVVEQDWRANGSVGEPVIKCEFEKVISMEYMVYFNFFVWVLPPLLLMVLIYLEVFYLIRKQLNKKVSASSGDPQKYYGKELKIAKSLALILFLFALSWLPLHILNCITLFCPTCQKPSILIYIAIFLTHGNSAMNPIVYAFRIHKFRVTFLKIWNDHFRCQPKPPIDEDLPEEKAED

[3] = molecular target: Adenosine receptors; A1 & A2 (Rattus norvegicus) (UniProt P29276+P25099+P30543); assay: Ratio of Ki values of A1 adenosine and A2 adenosine receptor; type: protein assay

| Ki (Adenosine A2 receptor) [nM] | Ki (Adenosine receptor A1) [nM] | Ratio [3] | SMILES | Change (Rattus norvegicus [1]) [%] | Change (Rattus norvegicus [2]) [%] | Change (Rattus norvegicus [1]; 10 mg/kg) [%] | Change (Rattus norvegicus [2]; 10 mg/kg) [%] |
| --- | --- | --- | --- | --- | --- | --- | --- |
| 160 | 40.1 | 4 | OC[C@H]1O[C@@H](n2cnc3c(NC4CCCc5ccc(O)cc54)ncnc32)[C@H](O)[C@@H]1O (stereo not given in full) | <10 | -17 |  |  |
| 103200 | 43.6 |  | CCCCOc1ccc2c(c1)CCC2Nc1ncnc2c1ncn2[C@@H]1O[C@H](CO)[C@@H](O)[C@H]1O (single isomer, unassigned; isomer A) [listing 1 of 2 here] |  |  | 15 | <10 |
| 666 | 68 | 9.8 | OC[C@H]1O[C@@H](n2cnc3c(NCC4(O)CCc5ccccc54)ncnc32)[C@H](O)[C@@H]1O (stereo not given in full) | 17 | -23 |  |  |
| 1922 | 61.3 | 31.4 | OC[C@H]1OC(n2cnc3c(NCC4(O)CCCc5ccccc54)ncnc32)[C@H](O)[C@@H]1O (stereo not given in full) | <10 | <10 |  |  |
| 43440 | 425 | 102 | CC(C)Oc1ccc2c(c1)C(Nc1ncnc3c1ncn3[C@@H]1O[C@H](CO)[C@@H](O)[C@H]1O)CCC2 (stereo not given in full) | 27 | -41 |  |  |
| 857 | 118 | 7.3 | OC[C@H]1O[C@@H](n2cnc3c(NCC4CCCCc5ccccc54)ncnc32)[C@H](O)[C@@H]1O (stereo not given in full) | <10 | <10 |  |  |
| 4350 | 59.5 |  | COc1ccc2c(c1)CCC2Nc1ncnc2c1ncn2[C@@H]1O[C@H](CO)[C@@H](O)[C@H]1O (stereo in doubt; 4) [listing 1 of 2 here] |  |  | -33 | -40 |
| 642 | 87.9 | 7.3 | CC(C)Oc1cccc2c1CCCC2Nc1ncnc2c1ncn2[C@@H]1O[C@H](CO)[C@@H](O)[C@H]1O (stereo not given in full) | 24 | -19 |  |  |
| 218 | 23.7 | 9.2 | COc1cccc2c1CCCC2Nc1ncnc2c1ncn2[C@@H]1O[C@H](CO)[C@@H](O)[C@H]1O (stereo not given in full) | -31 | -52 |  |  |
| 1383 | 4.98 | 278 | COc1cc2c(cc1OC)CC(Nc1ncnc3c1ncn3[C@@H]1O[C@H](CO)[C@@H](O)[C@H]1O)C2 | -33 | -17 |  |  |
| 1642 | 23.8 | 68.9 | OC[C@H]1O[C@@H](n2cnc3c(NC4Cc5ccccc5C4)ncnc32)[C@H](O)[C@@H]1O | -47 | -29 |  |  |
|  |  | 13.2 | COc1ccc2c(c1)C(Nc1ncnc3c1ncn3[C@@H]1O[C@H](CO)[C@@H](O)[C@H]1O)CCC2 (single isomer, unassigned; isomer A) [listing 1 of 2 here] |  |  |  |  |
| 321 | 33.7 | 9.5 | OC[C@H]1O[C@@H](n2cnc3c(NC4CCCc5ccccc54)ncnc32)[C@H](O)[C@@H]1O (stereo not given in full) | -24 | -51 |  |  |
| 95100 | 7660 | 12.4 | OC[C@H]1O[C@@H](n2cnc3c(NC4CCCc5ccc(OCc6ccccc6)cc54)ncnc32)[C@H](O)[C@@H]1O (stereo not given in full) | 20 | -30 |  |  |
| 58.3 | 31.9 | 1.83 | OC[C@H]1O[C@@H](n2cnc3c(NC4CCSc5ccccc54)ncnc32)[C@H](O)[C@@H]1O (stereo not given in full) | 29 | -23 |  |  |
| 769 | 42.3 | 18.2 | OC[C@H]1O[C@@H](n2cnc3c(NC4CCc5cc(O)ccc54)ncnc32)[C@H](O)[C@@H]1O (stereo not given in full) | -11 | -17 |  |  |
| 339 | 63.5 | 5.3 | OC[C@H]1O[C@@H](n2cnc3c(NC4CCOc5ccccc54)ncnc32)[C@H](O)[C@@H]1O (stereo not given in full) | 21 | -21 |  |  |
| 327 | 81.1 | 4 | CCCOc1cccc2c1CCCC2Nc1ncnc2c1ncn2[C@@H]1O[C@H](CO)[C@@H](O)[C@H]1O (stereo not given in full) | 16 | -27 |  |  |
| 229 | 3.6 | 63.9 | OC[C@H]1O[C@@H](n2cnc3c(NC4CSc5ccccc5C4)ncnc32)[C@H](O)[C@@H]1O (stereo not given in full) | -33 | -21 |  |  |
| 5922 | 46.9 |  | CCCCOc1ccc2c(c1)CCC2Nc1ncnc2c1ncn2[C@@H]1O[C@H](CO)[C@@H](O)[C@H]1O (stereo in doubt; 15) [listing 1 of 2 here] |  |  | -28 | -46 |

| Ki (Adenosine A2 receptor) [nM] | Ki (Adenosine receptor A1) [nM] | Ratio [3] | SMILES | Change (Rattus norvegicus [1]) [%] | Change (Rattus norvegicus [2]) [%] | Change (Rattus norvegicus [1]; 10 mg/kg) [%] | Change (Rattus norvegicus [2]; 10 mg/kg) [%] |
| --- | --- | --- | --- | --- | --- | --- | --- |
| 163 | 22.9 | 7.1 | OC[C@H]1O[C@@H](n2cnc3c(N[C@@H]4CCCc5ccccc54)ncnc32)[C@H](O)[C@@H]1O | -30 | -57 |  |  |
| 44.2 | 32.4 | 1.36 | OC[C@H]1OC(n2cnc3c(NCC4=CCc5ccccc54)ncnc32)[C@H](O)[C@@H]1O (stereo not given in full) | 26 | -32 |  |  |
| 1808 | 41 | 44 | OC[C@H]1O[C@@H](n2cnc3c(NC4CCc5cc(Cl)ccc54)ncnc32)[C@H](O)[C@@H]1O (stereo not given in full) | -24 | -24 |  |  |
| 1450 | 41.7 |  | COc1ccc2c(c1)CCC2Nc1ncnc2c1ncn2[C@@H]1O[C@H](CO)[C@@H](O)[C@H]1O (single isomer, unassigned; isomer b) [listing 1 of 2 here] |  |  | -11 | -25 |
| 3002 | 115 | 26.2 | COc1cc2c(cc1OC)C(Nc1ncnc3c1ncn3[C@@H]1O[C@H](CO)[C@@H](O)[C@H]1O)CC2 (stereo not given in full) | <10 | -19 |  |  |
| 274 | 12.1 |  | COc1ccc2c(c1)C(Nc1ncnc3c1ncn3[C@@H]1O[C@H](CO)[C@@H](O)[C@H]1O)CCC2 (single isomer, unassigned; isomer B) [listing 1 of 2 here] |  |  | 37 | -44 |
| 339 | 8.39 | 40.3 | OC[C@H]1OC(n2cnc3c(NC4CCc5ccccc5C4)ncnc32)[C@H](O)[C@@H]1O (stereo not given in full) | -44 | -47 |  |  |
|  |  | 27 | COc1ccc2c(c1)C(Nc1ncnc3c1ncn3[C@@H]1O[C@H](CO)[C@@H](O)[C@H]1O)CCC2 (stereo in doubt; 31) [listing 1 of 2 here] |  |  |  |  |
| 34060 | 2580 |  | COc1ccc2c(c1)C(Nc1ncnc3c1ncn3[C@@H]1O[C@H](CO)[C@@H](O)[C@H]1O)CCC2 (single isomer, unassigned; isomer A) [listing 2 of 2 here] |  |  | <10 | <10 |
|  |  | 34.8 | COc1ccc2c(c1)CCC2Nc1ncnc2c1ncn2[C@@H]1O[C@H](CO)[C@@H](O)[C@H]1O (single isomer, unassigned; isomer b) [listing 2 of 2 here] |  |  |  |  |
|  |  | 73 | COc1ccc2c(c1)CCC2Nc1ncnc2c1ncn2[C@@H]1O[C@H](CO)[C@@H](O)[C@H]1O (stereo in doubt; 4) [listing 2 of 2 here] |  |  |  |  |
|  |  | 81.7 | CCCCOc1ccc2c(c1)CCC2Nc1ncnc2c1ncn2[C@@H]1O[C@H](CO)[C@@H](O)[C@H]1O (single isomer, unassigned; isomer B) [listing 1 of 2 here] |  |  |  |  |
|  |  | 22.7 | COc1ccc2c(c1)C(Nc1ncnc3c1ncn3[C@@H]1O[C@H](CO)[C@@H](O)[C@H]1O)CCC2 (single isomer, unassigned; isomer B) [listing 2 of 2 here] |  |  |  |  |
|  |  | 126 | CCCCOc1ccc2c(c1)CCC2Nc1ncnc2c1ncn2[C@@H]1O[C@H](CO)[C@@H](O)[C@H]1O (stereo in doubt; 15) [listing 2 of 2 here] |  |  |  |  |
| 28260 | 236 |  | COc1ccc2c(c1)CCC2Nc1ncnc2c1ncn2[C@@H]1O[C@H](CO)[C@@H](O)[C@H]1O (single isomer, unassigned; isomer A) [listing 1 of 2 here] |  |  | <10 | <10 |
| 619 | 22.9 |  | COc1ccc2c(c1)C(Nc1ncnc3c1ncn3[C@@H]1O[C@H](CO)[C@@H](O)[C@H]1O)CCC2 (stereo in doubt; 31) [listing 2 of 2 here] |  |  | -40 | -56 |
|  |  | 2370 | CCCCOc1ccc2c(c1)CCC2Nc1ncnc2c1ncn2[C@@H]1O[C@H](CO)[C@@H](O)[C@H]1O (single isomer, unassigned; isomer A) [listing 2 of 2 here] |  |  |  |  |
|  |  | 120 | COc1ccc2c(c1)CCC2Nc1ncnc2c1ncn2[C@@H]1O[C@H](CO)[C@@H](O)[C@H]1O (single isomer, unassigned; isomer A) [listing 2 of 2 here] |  |  |  |  |
| 3946 | 48.3 |  | CCCCOc1ccc2c(c1)CCC2Nc1ncnc2c1ncn2[C@@H]1O[C@H](CO)[C@@H](O)[C@H]1O (single isomer, unassigned; isomer B) [listing 2 of 2 here] |  |  | -13 | -31 |

| SMILES | Ki (Adenosine A2 receptor) [nM] | Ki (Adenosine receptor A1) [nM] | Ratio [3] | Change (Rattus norvegicus [1]) [%] | Change (Rattus norvegicus [2]) [%] | Change (Rattus norvegicus [1]; 10 mg/kg) [%] | Change (Rattus norvegicus [2]; 10 mg/kg) [%] |
| --- | --- | --- | --- | --- | --- | --- | --- |
| OC[C@H]1O[C@@H](n2cnc3c(N[C@H]4CCc5ccccc54)ncnc32)[C@H](O)[C@@H]1O | 23000 | 310 | 74 | <10 | <10 |  |  |
| OC[C@H]1O[C@@H](n2cnc3c(N[C@@H]4CCc5ccccc54)ncnc32)[C@H](O)[C@@H]1O | 412 | 22.2 | 18.6 | -18 | -37 |  |  |
